Reference: ChEMBL document CHEMBL1201862, “PubChem BioAssay data set” (2004)
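Dose response: 5 concentrations. Exposure: 48 h. Format: 96-well plates. Endpoint: linear interpolation; highest concentration if not reached. GI50 = concentration required for 50% inhibition of growth.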 Activity calls are given as the source filed them. No stated cut-off is given here; in the data, active = GI50 up to about 1.1 µM and inactive = higher.

Experiments:
Experiment in all cases: growth of human tumour cells (NCI), 48 h
A549 = tested on: A549
CAKI-1 = tested on: CAKI-1
HCC 2998 = tested on: HCC 2998
HCT-116 = tested on: HCT-116
HOP-62 = tested on: HOP-62
LOX IMVI = tested on: LOX IMVI
Malme-3M = tested on: Malme-3M
NCI-H23 = tested on: NCI-H23
OVCAR-3 = tested on: OVCAR-3
OVCAR-5 = tested on: OVCAR-5
OVCAR-8 = tested on: OVCAR-8
SF-539 = tested on: SF-539
SK-MEL-28 = tested on: SK-MEL-28
SK-OV-3 = tested on: SK-OV-3
U-251 = tested on: U-251
BT-549 = tested on: BT-549
NCI/ADR-RES = tested on: NCI/ADR-RES
MDA-MB-231 = tested on: MDA-MB-231
MDA-MB-435 = tested on: MDA-MB-435

Measured: GI50

C=C1C(=O)OC2(C)C3CCC(C3)C12 (configuration not stated)
inactive: A549 > 100 µM | CAKI-1 30.1 µM | HCC 2998 66.1 µM | HCT-116 37.6 µM | HOP-62 > 100 µM | LOX IMVI 80.2 µM | Malme-3M 44.1 µM | NCI-H23 30.8 µM | OVCAR-3 53.5 µM | OVCAR-5 > 100 µM | OVCAR-8 36 µM | SF-539 98.2 µM | SK-MEL-28 > 100 µM | SK-OV-3 > 100 µM | U-251 > 100 µM

ClCCCC1COc2ccccc2O1 (configuration not stated)
inactive: A549 > 100 µM | BT-549 23.1 µM | CAKI-1 > 100 µM | HCC 2998 > 100 µM | HCT-116 45.7 µM | HOP-62 > 100 µM | Malme-3M > 100 µM | NCI-H23 > 10 µM | NCI/ADR-RES > 100 µM | OVCAR-3 > 100 µM | OVCAR-5 55.8 µM | OVCAR-8 > 100 µM | SF-539 > 100 µM | SK-MEL-28 > 100 µM | SK-OV-3 8.81 µM | U-251 > 100 µM

COc1nc2c(c(=O)n1C)N=C(c1ccccc1)[C@H](C(CC(=O)c1ccccc1)c1ccccc1)C(c1ccccc1)N2 (some centres not stated)
inactive: A549 32.3 µM | BT-549 > 100 µM | CAKI-1 27 µM | HCC 2998 83.8 µM | HCT-116 88.1 µM | HOP-62 > 100 µM | LOX IMVI > 100 µM | MDA-MB-231 16.2 µM | MDA-MB-435 > 100 µM | NCI-H23 > 100 µM | NCI/ADR-RES 39.6 µM | OVCAR-3 > 100 µM | OVCAR-5 > 100 µM | OVCAR-8 54.5 µM | SF-539 > 100 µM | SK-MEL-28 > 100 µM | SK-OV-3 > 100 µM | U-251 > 100 µM

O=C(c1ccc(Cl)cc1Cl)N(C(=O)N1CCCCC1)c1ccccc1
inactive: BT-549 > 100 µM | CAKI-1 > 100 µM | HCT-116 > 100 µM | LOX IMVI > 100 µM | MDA-MB-231 > 100 µM | MDA-MB-435 > 100 µM | Malme-3M 5.94 µM | NCI-H23 > 100 µM | NCI/ADR-RES > 100 µM | OVCAR-3 42.5 µM | OVCAR-5 69.3 µM | OVCAR-8 > 100 µM | SF-539 > 100 µM | SK-MEL-28 > 100 µM | SK-OV-3 > 100 µM | U-251 > 100 µM

COc1cc(CNC2=NCCC2)cc(OC)c1OC
inactive: A549 > 100 µM | BT-549 > 100 µM | CAKI-1 > 100 µM | HCC 2998 > 100 µM | HCT-116 39.6 µM | HOP-62 > 100 µM | Malme-3M > 100 µM | NCI-H23 > 100 µM | NCI/ADR-RES > 100 µM | OVCAR-3 > 100 µM | OVCAR-5 > 100 µM | OVCAR-8 > 100 µM | SF-539 > 100 µM | SK-MEL-28 > 100 µM | SK-OV-3 > 100 µM | U-251 53.3 µM

O=c1/c(=C/c2ccc3c(c2)OCO3)sc2nnc(Cc3ccccc3)n12
inactive: A549 > 100 µM | CAKI-1 > 100 µM | HCC 2998 81.8 µM | HCT-116 > 100 µM | HOP-62 > 100 µM | LOX IMVI > 100 µM | Malme-3M > 100 µM | NCI-H23 > 100 µM | OVCAR-3 > 100 µM | OVCAR-5 > 100 µM | OVCAR-8 > 100 µM | SF-539 > 100 µM | SK-MEL-28 > 100 µM | SK-OV-3 > 100 µM | U-251 > 100 µM

CCOP(=O)(OCC)C1CC(O)CN1OC(=O)C(C)(C)C (configuration not stated)
inactive: A549 > 100 µM | HCT-116 > 100 µM | HOP-62 > 100 µM | LOX IMVI > 100 µM | MDA-MB-231 > 100 µM | MDA-MB-435 > 100 µM | Malme-3M > 100 µM | NCI-H23 > 100 µM | NCI/ADR-RES > 100 µM | OVCAR-3 > 100 µM | OVCAR-5 > 100 µM | OVCAR-8 > 100 µM | SK-MEL-28 > 100 µM | SK-OV-3 > 100 µM | U-251 > 100 µM

COc1cc(O)c(C(=O)CC(C)=O)c(OC)c1
inactive: A549 > 100 µM | CAKI-1 > 100 µM | HCC 2998 > 100 µM | HCT-116 > 100 µM | HOP-62 > 100 µM | LOX IMVI > 100 µM | Malme-3M > 100 µM | NCI-H23 > 100 µM | OVCAR-3 > 100 µM | OVCAR-5 > 100 µM | OVCAR-8 > 100 µM | SF-539 > 100 µM | SK-MEL-28 > 100 µM | SK-OV-3 > 100 µM | U-251 > 100 µM

Cn1c2ccccc2c2nc3ccccc3c(Cl)c21
inactive: A549 > 100 µM | BT-549 > 100 µM | CAKI-1 > 100 µM | HCT-116 > 100 µM | HOP-62 > 100 µM | LOX IMVI > 100 µM | MDA-MB-231 > 100 µM | MDA-MB-435 > 100 µM | Malme-3M > 100 µM | NCI-H23 36.2 µM | NCI/ADR-RES > 100 µM | OVCAR-3 > 100 µM | OVCAR-5 49 µM | OVCAR-8 > 100 µM | SF-539 > 100 µM | SK-MEL-28 > 100 µM | SK-OV-3 35.9 µM | U-251 55.8 µM

CS(=O)(=O)OCOS(C)(=O)=O
inactive: A549 > 100 µM | BT-549 > 100 µM | CAKI-1 69 µM | HCC 2998 > 100 µM | HCT-116 > 100 µM | HOP-62 > 100 µM | LOX IMVI 43.8 µM | MDA-MB-231 > 100 µM | MDA-MB-435 > 100 µM | NCI-H23 69 µM | NCI/ADR-RES > 100 µM | OVCAR-3 > 100 µM | OVCAR-5 > 100 µM | OVCAR-8 > 100 µM | SF-539 > 100 µM | SK-MEL-28 > 100 µM | SK-OV-3 > 100 µM | U-251 > 100 µM

O=[N+]([O-])c1cccc(Nc2nc(Cl)nc(Cl)n2)c1
inactive: A549 > 100 µM | CAKI-1 > 100 µM | HCC 2998 > 100 µM | HCT-116 > 100 µM | HOP-62 > 100 µM | LOX IMVI > 100 µM | Malme-3M > 100 µM | NCI-H23 > 100 µM | OVCAR-3 > 100 µM | OVCAR-5 > 100 µM | OVCAR-8 > 100 µM | SF-539 > 100 µM | SK-MEL-28 > 100 µM | SK-OV-3 > 100 µM | U-251 > 100 µM

O=S(=O)(O)SC/C=C\CSS(=O)(=O)O
inactive: A549 > 100 µM | CAKI-1 > 100 µM | HCC 2998 > 100 µM | HCT-116 > 100 µM | HOP-62 > 100 µM | LOX IMVI 29.4 µM | Malme-3M > 100 µM | NCI-H23 > 100 µM | OVCAR-3 > 100 µM | OVCAR-5 > 100 µM | OVCAR-8 > 100 µM | SF-539 > 100 µM | SK-MEL-28 > 100 µM | SK-OV-3 > 100 µM | U-251 61.2 µM
